Test results: patent US20250361239A1, “PROTEIN DEGRADERS AND USES THEREOF” (ZHUHAI YUFAN BIOTECHNOLOGIES CO., LTD., priority 2022, published 2025)

What was measured:
[1] = system: HL60 cells; assay: HL60 cell killing experiment (CellTiter-Glo cell viability); format: cell-based; details: CTG luminescence
Procedure: HL60 cell lines were purchased from ATCC (Cat #ATCC® CCL-240™), IMDM media were purchased from ATCC (Cat #ATCC® 30-2005™), FBS was purchased from Gibco (Cat #10091148), celltiter-glo luminescent cell viability assay was purchased from promega (Cat #G7572), and 96-well plates were purchased from corning (Cat #3610).
The effect of compounds on the growth of HL60 cells was determined by measuring cell viability. Firstly, cells in the logarithmic growth phase were collected and centrifuged, and the culture supernatant was discarded. The centrifuged cells were resuspended in a fresh complete medium, and the cell density was adjusted to 5×10^4 cells/mL. The resuspended cells were inoculated into two opaque 96-well cell culture plates at 100 μL of cell suspension per well, and the cell culture plates were incubated in a cell incubator at 37° C. for 4 h. After 4 h, dilutions (20 μL) of compounds with different concentrations were added. After one of the cell plates was cooled to room temperature, 60 μL of CTG reagent was added, and the luminescence values were read on the instrument as G0. The other one was incubated in a cell incubator for 48 h. After 48 h, 60 μL of CTG reagent was added, and the luminescence values were read on the instrument as G3.
According to the corresponding proliferation rate and concentration of each gradient concentration well, a gradient curve of cell proliferation was fitted using XLFit software, and the GI50 values of compounds were calculated.

[2] = biological target: T1, GSPT1 (Homo sapiens, UniProt P15170+Q96SW2); assay: Degradation of GSPT1 by the compounds (HiBiT signal in GSPT1/HEK293 hibit cells); format: cell-based; details: 6 h incubation, Nano Glo HiBiT Lytic Detection
T1 construct: host or cells: HEK293
Procedure: GSPT1/HEK293 hibit cell lines were constructed by Shanghai BioDuro Co., Ltd., HEK293 cell lines were purchased from ATCC (Cat #ATCC® CRL-1573™), DMEM media were purchased from ATCC (Cat #ATCC® 30-2002™), FBS was purchased from Gibco (Cat #10091148), Nano Glo HiBiT Lytic Detection System was purchased from Promega (Cat #N3040), and 96-well plates were purchased from coming (Cat #3610).
The degradation of GSPT1 by the compounds was determined by measuring the intensity of hibit signals in cells. Firstly, the cells were digested with pancreatin, and the digestion was then terminated with medium. The cells were centrifuged, and the supernatant was discarded. The centrifuged cells were resuspended in a fresh complete medium, and the cell density was adjusted to 2.5×10^4 cells/mL. The resuspended cells were inoculated into an opaque 96-well cell culture plate at 100 μL of cell suspension per well, and the cell culture plate was incubated in a cell incubator at 37° C. overnight. The next day, dilutions (20 μL) of compounds with different concentrations were added, and the plate was incubated in a cell incubator for 6 h. After 6 h, 60 μL of Nano Glo HiBiT Lytic Detection System reagent was added and the luminescence values were read on the instrument.
According to the corresponding degradation rate and concentration of each gradient concentration well, a gradient curve of degradation rate was fitted using XLFit software, and the DC50 values of compounds were calculated.

[3] = Homo sapiens, HL-60, 48 h incubation

T1 sequence (P15170 whole entry): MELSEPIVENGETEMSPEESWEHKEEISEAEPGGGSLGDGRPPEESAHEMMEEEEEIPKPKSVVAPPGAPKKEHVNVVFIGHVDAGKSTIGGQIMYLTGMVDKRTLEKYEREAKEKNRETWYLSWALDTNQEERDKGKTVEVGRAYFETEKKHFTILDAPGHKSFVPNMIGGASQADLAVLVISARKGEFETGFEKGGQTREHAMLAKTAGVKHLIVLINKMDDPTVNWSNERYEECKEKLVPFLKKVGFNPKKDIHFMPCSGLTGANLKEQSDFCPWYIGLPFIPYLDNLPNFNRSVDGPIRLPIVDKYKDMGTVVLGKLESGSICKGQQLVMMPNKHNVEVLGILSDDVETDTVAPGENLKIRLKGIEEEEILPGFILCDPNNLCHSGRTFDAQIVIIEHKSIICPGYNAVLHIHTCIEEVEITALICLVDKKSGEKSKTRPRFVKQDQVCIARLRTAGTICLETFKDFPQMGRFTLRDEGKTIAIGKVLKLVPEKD
T1 sequence (Q96SW2 whole entry): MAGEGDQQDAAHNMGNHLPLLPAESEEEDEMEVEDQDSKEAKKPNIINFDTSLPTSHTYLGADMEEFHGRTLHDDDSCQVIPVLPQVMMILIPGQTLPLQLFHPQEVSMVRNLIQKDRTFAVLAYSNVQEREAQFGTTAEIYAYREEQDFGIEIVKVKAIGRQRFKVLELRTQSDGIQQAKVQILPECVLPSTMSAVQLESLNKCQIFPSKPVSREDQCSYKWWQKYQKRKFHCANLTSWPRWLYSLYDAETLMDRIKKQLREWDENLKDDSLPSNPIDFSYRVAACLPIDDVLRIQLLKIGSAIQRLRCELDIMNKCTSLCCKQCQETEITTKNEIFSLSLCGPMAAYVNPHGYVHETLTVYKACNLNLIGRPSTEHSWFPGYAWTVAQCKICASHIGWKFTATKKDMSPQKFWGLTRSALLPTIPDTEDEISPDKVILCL
T1 sequence (Q16531 whole entry partner): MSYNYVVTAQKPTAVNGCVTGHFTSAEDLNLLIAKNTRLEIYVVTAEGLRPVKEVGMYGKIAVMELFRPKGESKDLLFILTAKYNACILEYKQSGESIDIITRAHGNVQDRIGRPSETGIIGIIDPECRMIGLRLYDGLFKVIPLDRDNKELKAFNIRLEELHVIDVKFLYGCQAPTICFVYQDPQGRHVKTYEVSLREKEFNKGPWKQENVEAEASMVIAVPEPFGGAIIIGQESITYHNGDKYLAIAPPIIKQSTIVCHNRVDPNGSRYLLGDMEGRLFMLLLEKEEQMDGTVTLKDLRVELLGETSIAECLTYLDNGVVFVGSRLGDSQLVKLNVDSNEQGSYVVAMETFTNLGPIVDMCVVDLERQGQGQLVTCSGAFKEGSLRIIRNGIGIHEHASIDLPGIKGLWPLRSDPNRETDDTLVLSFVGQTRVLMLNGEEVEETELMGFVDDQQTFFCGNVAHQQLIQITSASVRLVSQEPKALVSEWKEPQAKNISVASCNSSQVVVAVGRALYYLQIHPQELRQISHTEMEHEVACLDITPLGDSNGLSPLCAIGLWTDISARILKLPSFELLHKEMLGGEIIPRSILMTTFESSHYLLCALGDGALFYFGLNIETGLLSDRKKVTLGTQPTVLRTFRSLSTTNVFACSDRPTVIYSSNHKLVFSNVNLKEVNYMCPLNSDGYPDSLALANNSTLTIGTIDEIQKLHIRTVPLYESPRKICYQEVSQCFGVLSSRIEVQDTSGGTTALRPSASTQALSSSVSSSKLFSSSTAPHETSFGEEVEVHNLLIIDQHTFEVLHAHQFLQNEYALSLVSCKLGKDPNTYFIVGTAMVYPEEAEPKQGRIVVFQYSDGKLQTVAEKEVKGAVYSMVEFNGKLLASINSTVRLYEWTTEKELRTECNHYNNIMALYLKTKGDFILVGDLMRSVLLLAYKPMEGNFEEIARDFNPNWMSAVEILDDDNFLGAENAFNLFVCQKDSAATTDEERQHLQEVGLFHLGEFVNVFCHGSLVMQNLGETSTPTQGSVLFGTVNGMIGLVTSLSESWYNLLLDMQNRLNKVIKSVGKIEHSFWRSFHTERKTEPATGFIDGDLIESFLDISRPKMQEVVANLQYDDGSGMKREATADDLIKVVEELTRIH

SMILES	GI50 [1, 3]	DC50 [2]	GI50 ([1]; 48 h incubation)
O=C1CCC(N2C(=O)c3cccc(NCc4cccc5c4CCN5C(=O)[C@H]4CC[C@H](c5nc6cccnc6s5)CC4)c3C2=O)C(=O)N1 (stereo partly shown) [Example 87]	< 100 nM	–	–
CN(C)c1ccc2c(c1)nc(C1CCC(NC(=O)c3cccc(CNc4cccc5c4C(=O)N(C4CCC(=O)NC4=O)C5=O)c3)CC1)n2C (stereo not shown) [Example 102]	< 100 nM	–	–
Cn1c2cnccc2nc1[C@H]1CC[C@H](C(=O)Nc2cccc(CNc3cccc4c3C(=O)N(C3CCC(=O)NC3=O)C4=O)c2F)CC1 (stereo partly shown) [Example 78]	< 100 nM	–	–
COc1ccc2nc([C@H]3CC[C@H](CNc4cc(COc5cccc6c5CN(C5CCC(=O)NC5=O)C6=O)ccn4)CC3)sc2n1 (stereo partly shown) [Example 136]	–	< 100 nM	–
O=C1CCC(N2C(=O)c3cccc(NCc4cccc(NC(=O)[C@H]5CC[C@H](c6nc7cccnc7s6)CC5)n4)c3C2=O)C(=O)N1 (stereo partly shown) [Example 62]	< 100 nM	< 100 nM	–
O=C1CCC(N2C(=O)c3cccc(NCc4ccc(C(=O)NC5CCC(c6nc7c(cnc8[nH]cc(C9CCOCC9)c87)[nH]6)CC5)cc4)c3C2=O)C(=O)N1 (stereo not shown) [Example 116]	< 100 nM	< 100 nM	–
O=C1CCC(N2C(=O)c3cccc(NCc4cccc(C(=O)NC5CCC(c6nc7ccccc7s6)CC5)c4)c3C2=O)C(=O)N1 (stereo not shown) [Example 49]	< 100 nM	< 100 nM	–
Cn1c(C2CC(NC(=O)c3cccc(CNc4cccc5c4C(=O)N(C4CCC(=O)NC4=O)C5=O)c3)C2)nc2ccncc21 (stereo not shown) [Example 9]	–	< 100 nM	–
CN(C(=O)c1cc(CNc2cccc3c2C(=O)N(C2CCC(=O)NC2=O)C3=O)ccn1)[C@H]1CC[C@H](c2nc3cccnc3s2)CC1 (stereo partly shown) [Example 79]	< 100 nM	< 100 nM	–
CN(C[C@H]1CC[C@H](c2nc3cccnc3s2)CC1)c1cc(CNc2cccc3c2C(=O)N(C2CCC(=O)NC2=O)C3=O)ccn1 (stereo partly shown) [Example 64]	< 100 nM	–	–
Cn1c(C2CCC(NC(=O)CCCCNc3cccc4c3C(=O)N(C3CCC(=O)NC3=O)C4=O)CC2)nc2c3c(C4CCCCC4)c[nH]c3ncc21 (stereo not shown) [Example 110]	< 100 nM	< 100 nM	–
O=C1CCC(N2C(=O)c3cccc(NCc4cccc(C(=O)NC5CCC(c6nsc7ccccc67)CC5)c4)c3C2=O)C(=O)N1 (single isomer, unassigned) [Example 53]	–	< 100 nM	< 100 nM
CCn1c(C2CCC(NC(=O)c3cccc(CNc4cccc5c4C(=O)N(C4CCC(=O)NC4=O)C5=O)c3)CC2)nc2ccncc21 (stereo not shown) [Example 71]	< 100 nM	< 100 nM	–
COc1ncc(CNc2cccc3c2C(=O)N(C2CCC(=O)NC2=O)C3=O)cc1C(=O)N[C@H]1CC[C@H](c2nc3cccnc3s2)CC1 (stereo partly shown) [Example 134]	–	< 100 nM	–
Cn1c(C2CCC(NC(=O)c3cc(COc4cccc5c4C(=O)N(C4CCC(=O)NC4=O)C5=O)ccn3)CC2)nc2ccncc21 (stereo not shown) [Example 48]	< 100 nM	< 100 nM	–
COc1cnc2sc([C@H]3CC[C@H](C(=O)Nc4cccc(CNc5cccc6c5C(=O)N(C5CCC(=O)NC5=O)C6=O)c4)CC3)nc2c1 (stereo partly shown) [Example 98]	< 100 nM	< 100 nM	–
O=C1CCC(N2C(=O)c3cccc(NC4(c5ccnc(C(=O)N[C@H]6CC[C@H](c7nc8cccnc8s7)CC6)c5)CC4)c3C2=O)C(=O)N1 (stereo partly shown) [Example 92]	< 100 nM	–	–
Cn1c(C2CCC(NC(=O)CCCCNc3cccc4c3C(=O)N(C3CCC(=O)NC3=O)C4=O)CC2)nc2ccncc21 (stereo not shown) [Example 8]	< 100 nM	< 100 nM	–
Cn1c2ncccc2nc1[C@H]1CC[C@H](NC(=O)c2cc(CNc3cccc4c3C(=O)N(C3CCC(=O)NC3=O)C4=O)ccn2)CC1 (stereo partly shown) [Example 43]	< 100 nM	< 100 nM	–
Cn1c2ccccc2nc1[C@H]1CC[C@H](N2Cc3ccc(CNc4cccc5c4C(=O)N(C4CCC(=O)NC4=O)C5=O)cc3C2=O)CC1 (stereo partly shown) [Example 68]	< 100 nM	–	–
O=C1CCC(N2C(=O)c3cccc(NCc4cccc(C(=O)NC5CCC(c6cc7cnccc7s6)CC5)c4)c3C2=O)C(=O)N1 (stereo not shown) [Example 51]	< 100 nM	< 100 nM	–
O=C1CCC(N2C(=O)c3cccc(NCc4cccc(C(=O)NC5CCC(c6nc7cccnc7n6C6CC6)CC5)c4)c3C2=O)C(=O)N1 (stereo not shown) [Example 82]	< 100 nM	< 100 nM	–
Cn1c(C2CCC(NC(=O)c3cc(CNc4cccc5c4C(=O)N(C4CCC(=O)NC4=O)C5=O)ccn3)CC2)nc2ccncc21 (stereo not shown) [Example 23]	< 100 nM	< 100 nM	–

SMILES	GI50 [1, 3]	DC50 [2]	GI50 ([1]; 48 h incubation)
Cn1c(C2CCC(NC(=O)c3cc(CNc4cccc5c4C(=O)N(C4CCC(=O)NC4=O)C5=O)ccc3F)CC2)nc2ccncc21 (stereo not shown) [Example 77]	< 100 nM	< 100 nM	–
Cn1c(C2CC3(CC(NC(=O)c4cccc(CNc5cccc6c5C(=O)N(C5CCC(=O)NC5=O)C6=O)c4)C3)C2)nc2ccncc21 (stereo not shown) [Example 69]	< 100 nM	< 100 nM	–
O=C1CCC(N2C(=O)c3cccc(NCc4cccc(C(=O)NC5CCC(c6nc7cccnc7s6)CC5)c4)c3C2=O)C(=O)N1 (stereo not shown) [Example 57]	< 100 nM	< 100 nM	–
O=C1CCC(N2C(=O)c3cccc(NCc4cccc(C(=O)NC5CCC(c6ccccc6)CC5)c4)c3C2=O)C(=O)N1 (stereo not shown) [Example 4]	–	< 100 nM	–
O=C1CCC(N2C(=O)c3cccc(NCc4cccc(C(=O)NC5CCC(c6n[nH]c7ccncc67)CC5)c4)c3C2=O)C(=O)N1 (stereo not shown) [Example 20]	< 100 nM	–	–
O=C1CCC(N2C(=O)c3cccc(NCc4ccnc(C(=O)NC5CCC(c6nc7ccccc7o6)CC5)c4)c3C2=O)C(=O)N1 (stereo not shown) [Example 22]	< 100 nM	< 100 nM	–
CN(C)c1cc2c(cn1)nc([C@H]1CC[C@H](C(=O)Nc3cccc(CNc4cccc5c4C(=O)N(C4CCC(=O)NC4=O)C5=O)c3)CC1)n2C (stereo partly shown) [Example 103]	< 100 nM	–	–
O=C1CCC(N2C(=O)c3cccc(NCc4cccc(C(=O)NC5CCC(c6nc7c(cnc8[nH]cc(C9CCOCC9)c87)[nH]6)CC5)c4)c3C2=O)C(=O)N1 (stereo not shown) [Example 115]	< 100 nM	< 100 nM	–
Cn1c(N2CCC(NC(=O)c3cc(CNc4cccc5c4C(=O)N(C4CCC(=O)NC4=O)C5=O)ccn3)CC2)nc2ccccc21 (stereo not shown) [Example 41]	< 100 nM	–	–
CN(C)c1cc2c(cn1)nc([C@H]1CC[C@H](NC(=O)c3cc(CNc4cccc5c4C(=O)N(C4CCC(=O)NC4=O)C5=O)ccn3)CC1)n2C (stereo partly shown) [Example 106]	< 100 nM	–	–
COc1ccc(CNc2cccc3c2C(=O)N(C2CCC(=O)NC2=O)C3=O)cc1C(=O)N[C@H]1CC[C@H](c2nc3cc(N)ccc3s2)CC1 (stereo partly shown) [Example 133]	–	< 100 nM	–
O=C1CCC(N2C(=O)c3cccc(NCc4cccc(C(=O)NC5CCCC(F)(F)C5)c4)c3C2=O)C(=O)N1 (stereo not shown) [Example 3]	–	< 100 nM	–
O=C1CCC(N2C(=O)c3cccc(NCc4cccc(C(=O)NC5CCC(c6csc7ncccc67)CC5)c4)c3C2=O)C(=O)N1 (stereo not shown) [Example 54]	< 100 nM	–	–
O=C1CCC(N2C(=O)c3cccc(NCc4cccc(C(=O)NC5CCC(c6csc7ccccc67)CC5)c4)c3C2=O)C(=O)N1 (stereo not shown) [Example 45]	< 100 nM	–	–
COc1ccc2nc([C@H]3CC[C@H](CNc4cc(CNc5cccc6c5C(=O)N(C5CCC(=O)NC5=O)C6=O)ccn4)CC3)sc2n1 (stereo partly shown) [Example 137]	–	< 100 nM	–
COc1ccc(CNc2cccc3c2C(=O)N(C2CCC(=O)NC2=O)C3=O)cc1C(=O)N[C@H]1CC[C@H](c2nc3cc(N)cnc3s2)CC1 (stereo partly shown) [Example 132]	–	< 100 nM	–
Cn1c2cc(N)ccc2nc1[C@H]1CC[C@H](NC(=O)c2cc(CNc3cccc4c3C(=O)N(C3CCC(=O)NC3=O)C4=O)ccn2)CC1 (stereo partly shown) [Example 131]	–	< 100 nM	–
O=C1CCC(N2C(=O)c3cccc(NCc4ccnc(NC[C@H]5CC[C@H](c6nc7cccnc7s6)CC5)c4)c3C2=O)C(=O)N1 (stereo partly shown) [Example 28]	< 100 nM	–	–
O=C1CCC(N2C(=O)c3cccc(NCc4cccc(C(=O)NC5CCC(c6csc7ccccc67)CC5)c4)c3C2=O)C(=O)N1 (stereo not shown) [Example 46]	–	–	< 100 nM
Cn1c2ccc(CNc3cccc4c3C(=O)N(C3CCC(=O)NC3=O)C4=O)cc2nc1[C@H]1CC[C@H](c2nc3cccnc3s2)CC1 (stereo partly shown) [Example 73]	< 100 nM	–	–
O=C1CCC(N2Cc3c(OCc4ccnc(NC[C@H]5CC[C@H](c6nc7cccnc7s6)CC5)c4)cccc3C2=O)C(=O)N1 (stereo partly shown) [Example 135]	–	< 100 nM	–
COc1cc2nc(C3CCC(NC(=O)c4cccc(CNc5cccc6c5C(=O)N(C5CCC(=O)NC5=O)C6=O)c4)CC3)n(C)c2cn1 (stereo not shown) [Example 88]	< 100 nM	–	–
